Five compounds from US20260217703A1, “INHIBITORS OF a-HEMOL YSIN OF STAPHYLOCOCCUS AUREUS” (HELMHOLTZ-ZENTRUM FÜR INFEKTIONSFORSCHUNG GMBH, priority 2022, published 2026) can be followed below.

Assay [1] deals with hemolysin alpha from Staphylococcus aureus (Staphylococcus aureus, UniProt P09616). Nature of the assay: cell-based.
Assay [2] deals with S. aureus Alpha hemolysin (Staphylococcus aureus, UniProt P09616). The assay can be described thus: cell-based.

pIC50: −log10 of the molar value. Where only a bound is given, the exact number is not on record here.

Sequence of S. aureus Alpha hemolysin (P09616 27-319 limits assumed): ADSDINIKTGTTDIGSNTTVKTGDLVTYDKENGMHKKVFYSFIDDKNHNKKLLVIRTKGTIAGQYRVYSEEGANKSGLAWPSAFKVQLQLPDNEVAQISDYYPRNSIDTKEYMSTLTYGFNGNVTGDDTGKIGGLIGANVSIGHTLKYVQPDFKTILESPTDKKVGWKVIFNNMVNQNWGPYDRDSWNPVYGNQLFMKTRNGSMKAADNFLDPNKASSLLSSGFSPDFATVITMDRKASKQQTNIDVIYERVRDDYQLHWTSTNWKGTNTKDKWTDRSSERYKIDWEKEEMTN
Sequence of hemolysin alpha from Staphylococcus aureus (P09616 27-319 limits assumed): as above

Turning to `Cc1cc2[nH]c(=O)c(=O)[nH]c2nc1S(=O)(=O)Nc1ccc(-c2ccc3oc(C(C)C)nc3c2)c(Cl)c1` [Compound 37, N-(3-chloro-4-(2-isopropylbenzo[d]oxazol-5-yl)phenyl)-7-methyl-2,3-dioxo-1,2,3,4-tetrahydropyrido[2,3-b]pyrazine-6-sulfonamide], the values for the pIC50 in assay [1] and in assay [2] were > 7.52 and 6.00 to 7.00, respectively.
As to `Cc1nc2cc(-c3ccc(NS(=O)(=O)c4nc5[nH]c(=O)c(=O)[nH]c5cc4C)cc3C(F)(F)F)ccc2o1` [Compound 38, 7-methyl-N-(4-(2-methylbenzo[d]oxazol-5-yl)-3-(trifluoromethyl)phenyl)-2,3-dioxo-1,2,3,4-tetrahydropyrido[2,3-b]pyrazine-6-sulfonamide], the pIC50 is > 7.52 in assay [1] and 6.00 to 7.00 in assay [2].
As to `Cc1nc2cc(-c3ccc(NS(=O)(=O)c4nc5[nH]c(=O)c(=O)[nH]c5cc4C)cc3Cl)cnc2o1` [Compound 39, N-(3-chloro-4-(2-methyloxazolo[5,4-b]pyridin-6-yl)phenyl)-7-methyl-2,3-dioxo-1,2,3,4-tetrahydropyrido[2,3-b]pyrazine-6-sulfonamide], the pIC50 in assay [1] is > 7.52; in assay [2] it was 7.00 to 7.52.
As for `Cc1nc2cc(-c3ccc(NS(=O)(=O)c4nc5[nH]c(=O)c(=O)[nH]c5cc4C)cc3C)ccc2o1` [Compound 40, 7-methyl-N-(3-methyl-4-(2-methylbenzo[d]oxazol-5-yl)phenyl)-2,3-dioxo-1,2,3,4-tetrahydropyrido[2,3-b]pyrazine-6-sulfonamide], the pIC50 in assay [1] is > 7.52; in assay [2] it was 7.00 to 7.52.
For `Cc1cc2[nH]c(=O)c(=O)[nH]c2nc1S(=O)(=O)Nc1ccc(-c2ccc3oc(C4CC4)nc3c2)c(Cl)c1` [Compound 41, N-(3-chloro-4-(2-cyclopropylbenzo[d]oxazol-5-yl)phenyl)-7-methyl-2,3-dioxo-1,2,3,4-tetrahydropyrido[2,3-b]pyrazine-6-sulfonamide], the figures for the pIC50 in assay [1] and in assay [2] were > 7.52 and 7.00 to 7.52, respectively.

The pIC50 is −log10 of the IC50, conventionally taken in molar units.
